These results are taken from patent publication US6514946B1, “Macrolide antibiotics and treatment and prophylaxis of pasteurellosis using the same” (Zaidan Hojin Biseibutsu Kagaku Kenkyu Kai, priority 1999, dated 2003).

For one series, the system named is S. aureus FDA209P. The experiment in a line: Minimum inhibition concentration (MIC), agar double dilution method. The class given is cell-based, Staphylococcus aureus. Particulars: Staphylococcus aureus, Mueller hinton agar, read-out: MIC. In outline: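 Agar two-fold dilution per Japan Society of Chemotherapy standard method; Mueller Hinton agar used for these organisms (BHI agar reserved for Pasteurella). MIC read as lowest concentration inhibiting growth.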

The next series deals with P. haemolytica. The experiment in a line: Bacteria separation test from nasal cavity swab. The series is classed as in vivo, cattle.
For the next series, the system named is ICR mice. The experiment in a line: Toxicity test, intravenous or subcutaneous injection. The series is classed as in vivo. Particulars: intravenous injection.
In series [1] the test system is Past haemolytica BBPO102 N811. Put plainly: Minimum inhibition concentration (MIC), agar double dilution method. The class given is cell-based, Pasteurella haemolytica. Particulars: Mannheimia haemolytica, BBPO102N811. The procedure, abridged:
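Method: Japan Society of Chemotherapy standard, agar double dilution. Medium: Mueller Hinton agar for the listed strains. Exception: Pasteurella on BHI agar.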

The subject of series [2] is Past haemolytica BAPO103 S801. The series is described as above. The series is classed as cell-based, Pasteurella haemolytica. Particulars: Mannheimia haemolytica, BAPO103S801; Past haemolytica BAPO103 S801, strain from poultry; BHI agar; read-out: MIC. In outline: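 Compounds were serially double-diluted into Mueller Hinton agar, following the Japan Society of Chemotherapy standard, and the test strains were then grown on it. Pasteurella alone was tested on brain heart infusion agar.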

Converted amounts (≈) assume the structure as drawn.

In the case of `CC[C@H]1OC(=O)C[C@@H](O)[C@H](C)[C@@H](O[C@@H]2O[C@H](C)C(O)C(N(C)C)C2O)[C@@H](CCN2CC(C)CC(C)C2)C[C@@H](C)C(=O)/C=C/C(C)=C/[C@@H]1CO[C@@H]1OC(C)C(O)[C@@H](OC)C1OC` (some centres unmarked) [Tilmicosin, tilmicosin], the minimum inhibitory concentration (MIC) in the series with S. aureus FDA209P was 0.39 µg/mL (≈ 0.449 µM); in series [1], 1.56 µg/mL (≈ 1.79 µM); in series [2], 50 µg/mL (≈ 57.5 µM). For the same compound, the “Separation rate (%) at completion (number of animal)” value with P. haemolytica (at completion) is recorded as 20 (1/5) % (number of animal). Moreover, in the series on P. haemolytica (before administration (baseline)), the “Separation rate (%) before administration (number of animal)” value is given as 20 (1/5) % (number of animal). In addition, the Dissection finding result in the series with ICR mice (0.5 mg/mouse), in the series on ICR mice (1.0 mg/mouse) and with ICR mice (2.0 mg/mouse) was “immediate death” each time.

Usually MIC stands for the lowest concentration that inhibits growth of the organism.
